Columns and labels:
[1] = tested on: woolly cupgrass; test: Test C pre-/postemergence herbicide test; assay type: in vivo, Eriochloa villosa
How it was run: (§1)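 Visual ratings on a 0–100 scale (100 = complete control) made versus untreated controls after 12 to 14 greenhouse days. Test chemicals, formulated in surfactant-containing non-phytotoxic solvent, applied preemergence to planted seeds or postemergence to 1- to 4-leaf plants (2 to 18 cm).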

[2] = tested on: rice; test: Test C flooded paddy test; assay type: in vivo, Oryza sativa; settings: for Plant response rating, Rice: 500 g ai/ha, visual rating after 12 to 14 days
How it was run: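 Postemergence sprays applied to plants 2 to 18 cm tall (1- to 4-leaf stage); paddy species grown to 2-leaf stage under flooding. After 12 to 14 days in greenhouse, visual rating versus untreated controls on 0–100 scale (0 no effect, 100 complete control).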

[3] = tested on: soybean; test: Test C pre-/postemergence herbicide test; assay type: in vivo, Glycine max
How it was run: as §1

[4] = tested on: bermudagrass; test: Test C pre-/postemergence herbicide test; assay type: in vivo, Cynodon dactylon
How it was run: as §1

[5] = tested on: corn; test: Test C pre-/postemergence herbicide test; assay type: in vivo, Zea mays
How it was run: as §1

[6] = tested on: common (oilseed) sunflower; test: Test C pre-/postemergence herbicide test; assay type: in vivo, Helianthus annuus
How it was run: as §1

[7] = tested on: velvetleaf; test: Test C pre-/postemergence herbicide test; assay type: in vivo, Abutilon theophrasti
How it was run: as §1

[8] = tested on: smallflower umbrella sedge; test: Test C flooded paddy test; assay type: in vivo, Cyperus difformis; settings: for Plant response rating, Sedge, Umbrella: 500 g ai/ha, visual rating after 12 to 14 days
[9] = 62 g ai/ha, preemergence, scale 0 to 100
[10] = 250 g ai/ha, scale 0-100, preemergence
[11] = 500 g ai/ha, scale 0 to 100 (0 no effect, 100 complete control), visual, 12 to 14 days, preemergence
[12] = 125 g ai/ha, scale 0 to 100 (0 no effect, 100 complete control)
[13] = 250 g ai/ha, scale of 0 to 100, 0 is no effect, 100 is complete control
[14] = scale 0 to 100 (0 no effect, 100 complete control)
[15] = 62 g ai/ha, preemergence, scale 0 to 100, 0 no effect, 100 complete control
[16] = 125 g ai/ha, scale 0 (no effect) to 100 (complete control), visual, 12 to 14 days, preemergence
[17] = 250 g ai/ha, scale 0 to 100 (0 no effect, 100 complete control), visual, 12 to 14 days, preemergence
[18] = Preemergence, 500 g ai/ha, scale 0 to 100, 0 no effect, 100 complete control
[19] = 62 g ai/ha, scale 0 to 100 (0 no effect, 100 complete control)

CCC1=NN(C(C)(C)C)CC1C(=O)Nc1cc(C(=O)N(C)CC)ccc1F (racemic) [Compound 342]
Plant response rating, Cupgrass, Woolly [1, 9]: 10
Plant response rating (0 = no effect, 100 = complete control), Cupgrass, Woolly ([1]; 125 g ai/ha, preemergence): 40
Plant response rating, Cupgrass, Woolly [1, 10]: 50
Plant response rating, Cupgrass, Woolly [1, 11]: 70
Rice plant response rating ([2]; 62 g ai/ha, scale 0 to 100): 20
Rice plant response rating [2, 12]: 30
Rice plant response rating [2, 13]: 60
Plant response rating, Rice [2, 14]: 80
Plant response rating, Soybean [3, 9]: 10
Plant response rating (0 = no effect, 100 = complete control), Soybean ([3]; 125 g ai/ha, preemergence): 60
Plant response rating, Soybean [3, 10]: 100
Plant response rating, Soybean [3, 11]: 100
Plant response rating, Bermudagrass [4, 15]: 45
Plant response rating (0 = no effect, 100 = complete control), Bermudagrass ([4]; 125 g ai/ha, preemergence): 60
Plant response rating, Bermudagrass [4, 10]: 90
Plant response rating, Bermudagrass [4, 11]: 90
Plant response rating, Corn [5, 9]: 10
Plant response rating (0 = no effect, 100 = complete control), Corn ([5]; 125 g ai/ha, preemergence): 50
Plant response rating, Corn [5, 10]: 70
Plant response rating, Corn [5, 11]: 90
Plant response rating, Sunflower [6, 9]: 5
Plant response rating (0 = no effect, 100 = complete control), Sunflower ([6]; 125 g ai/ha, preemergence): 20
Plant response rating, Sunflower [6, 10]: 75
Plant response rating, Sunflower [6, 11]: 100
Plant response rating, Velvetleaf [7, 9]: 50
Plant response rating (0 = no effect, 100 = complete control), Velvetleaf ([7]; 125 g ai/ha, preemergence): 60
Plant response rating, Velvetleaf [7, 10]: 100
Plant response rating, Velvetleaf [7, 11]: 100
Sedge, Umbrella plant response rating ([8]; 62 g ai/ha, scale 0 to 100): 40
Sedge, Umbrella plant response rating [8, 12]: 50
Sedge, Umbrella plant response rating [8, 13]: 70
Plant response rating, Sedge, Umbrella [8, 14]: 80

CCNC(=O)c1ccnc(NC(=O)c2cc(C(C)(C)C)nn2CC)c1 [Compound 152]
Plant response rating, Cupgrass, Woolly [1, 9]: 40
Plant response rating, Cupgrass, Woolly [1, 16]: 50
Plant response rating, Cupgrass, Woolly [1, 17]: 100
Cupgrass, Woolly plant response rating [1, 18]: 100
Rice plant response rating [2, 19]: 50
Rice plant response rating [2, 12]: 75
Rice plant response rating [2, 13]: 75
Plant response rating, Rice [2, 14]: 80
Plant response rating, Soybean [3, 9]: 0
Plant response rating, Soybean [3, 16]: 10
Soybean plant response rating [3, 18]: 100
Plant response rating, Bermudagrass [4, 15]: 85
Plant response rating, Bermudagrass [4, 16]: 90
Plant response rating, Bermudagrass [4, 17]: 100
Bermudagrass plant response rating [4, 18]: 100
Plant response rating, Corn [5, 9]: 40
Plant response rating, Corn [5, 16]: 45
Plant response rating, Corn [5, 17]: 50
Corn plant response rating [5, 18]: 70
Plant response rating, Sunflower [6, 9]: 0
Plant response rating, Sunflower [6, 16]: 10
Sunflower plant response rating [6, 18]: 70
Plant response rating, Velvetleaf [7, 9]: 0
Plant response rating, Velvetleaf [7, 16]: 100
Velvetleaf plant response rating [7, 18]: 100
Sedge, Umbrella plant response rating [8, 19]: 80
Sedge, Umbrella plant response rating [8, 12]: 80
Sedge, Umbrella plant response rating [8, 13]: 85
Plant response rating, Sedge, Umbrella [8, 14]: 85
